Results: US20250129054A1 (Terran Biosciences Inc., priority 2022, published 2025)

Assay: Serial tail vein bleed PK study in SD rats: methylone measured in plasma after IV or oral methylone or oral methylone prodrugs
Format: in vivo, Sprague Dawley rats
Details: 10 mg/kg, rat
Description: A pharmacokinetic (PK) study was performed in three male Sprague-Dawley (SD) rats following intravenous (IV) and oral (PO) administration of methylone at 1 mg/kg (IV) and 10 mg/kg (PO) respectively, or test compounds (prodrugs of methylone) at 10 mg/kg (PO). Parent compound (methylone) was measured in plasma.
Samples were sent for method optimization and measurement of parent compound (methylone) via unique calibration lines and following acceptance QC's. Dose formulation concentrations were also measured, and PK parameters were determined (Cmax (ng/mL), Tmax (hr), Cl (ml/min/kg), Vdss (L/kg), t½(hr), AUC0-t (ng/mL*hr), AUC0-inf (ng/mL*hr), MIRT (hr), Bioavailability ([…]) where warranted) using WinNon Lin software. Data (including bioanalytical results and assay performance) were reported in a tabulated format.
Formulation for PO Administration: For PO dosing, the prodrug was formulated in 10% DMSO/20% PEG400/70% water to a concentration of 2 mg free metabolite material/mL. This provided a dose of 10 mg free metabolite/kg when the prodrug was administered PO in 5 mL/kg dosing volumes.
Formulation for IV administration: For IV dosing, rac-methylone was formulated as solution in saline to a concentration of 0.5 mg free metabolite material/mL. This provided a dose of 1 mg free metabolite/kg when administered IV in 2 mL/kg dosing volumes.
The pharmacokinetic properties of the synthesized methylone prodrugs after oral administration in a rat model were assessed. The concentration of methylone was measured in each rat at various sampling timepoints after IV or oral administration of rac-methylone or the synthesized methylone prodrugs to rats.
Dose formulations were made at equivalent concentrations of active compound (methylone) adjusted for molecular weight of the compounds. The synthesized methylone prodrugs or analogs were dosed at 10 mg/kg oral (PO) nominal dose. Nominal doses were used in PK parameter determinations. The parent compound (methylone) was dosed at 1 mg/kg intravenous (IV) and 10 mg/kg (PO).

With `CC(C(=O)c1ccc2c(c1)OCO2)N(C)C(=O)C(C)(C)C` (stereo not drawn) [PG, N-[2-(1,3-Benzodioxol-5-yl)-1-methyl-2-oxo-ethyl]-N-2,2-trimethyl-propanamide] the “Plasma Concentrations of metabolite methylone” value (from here on “Plasma Concentrations”) (0.500 h after oral dosing of the prodrug, individual animals) was “BLQ (Below Lower Limit of Quantification (0.5 ng/mL))”, the “Plasma Concentrations” value (0.500 h after oral dosing of the prodrug, mean) was “BLQ (Below Lower Limit of Quantification (0.5 ng/mL))” and the “Plasma Concentrations” value (1.00 h after oral dosing of the prodrug, individual animals) was “BLQ (Below Lower Limit of Quantification (0.5 ng/mL))”. The “Plasma Concentrations” value (1.00 h after oral dosing of the prodrug, mean) was “BLQ (Below Lower Limit of Quantification (0.5 ng/mL))”, the “Plasma Concentrations” value (2.00 h after oral dosing of the prodrug, individual animals) was “BLQ (Below Lower Limit of Quantification (0.5 ng/mL))” and the “Plasma Concentrations” value (2.00 h after oral dosing of the prodrug, mean) was “BLQ (Below Lower Limit of Quantification (0.5 ng/mL))”. For the same compound, the “Plasma Concentrations” value (4.00 h after oral dosing of the prodrug, individual animals) was “BLQ (Below Lower Limit of Quantification (0.5 ng/mL))”, the “Plasma Concentrations” value (4.00 h after oral dosing of the prodrug, mean) was “BLQ (Below Lower Limit of Quantification (0.5 ng/mL))” and the “Plasma Concentrations” value (7.00 h after oral dosing of the prodrug, individual animals) was “BLQ (Below Lower Limit of Quantification (0.5 ng/mL))”. For the same compound, the “Plasma Concentrations” value (7.00 h after oral dosing of the prodrug, mean) was “BLQ (Below Lower Limit of Quantification (0.5 ng/mL))”, the “Plasma Concentrations” value (24.0 h after oral dosing of the prodrug, individual animals) was “BLQ (Below Lower Limit of Quantification (0.5 ng/mL))” and the “Plasma Concentrations” value (24.0 h after oral dosing of the prodrug, mean) was “BLQ (Below Lower Limit of Quantification (0.5 ng/mL))”.
